The supplement of paper PMC10331698
± gives the standard deviation of the averaged measurements.

Assays:
Experiment in all cases: LOEC (log10 uM (lowest observed effect concentration))
[1] = compound: NS(=O)(=O)C(F)(F)C(F)(F)C(F)(F)C(F)(F)C(F)(F)C(F)(F)C(F)(F)C(F)(F)F [Perfluorooctanesulfonamide]
Description: (§1)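 BioMAP Diversity Plus panel in human primary cell co-cultures, 4 concentrations in duplicate blinded samples. Responses are log10 fold change versus DMSO control, processed with tcpl v2.1.0. A hit is called when responses at any concentration exceed the cutoff (the larger of 3*bmad or log10(1.2)); the lowest observed effect concentration (modl_ga, log10 uM) is reported for hits.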

[2] = compound: O=C(O)C(F)(F)OC(F)(F)C(F)(F)OC(F)(F)C(F)(F)OC(F)(F)C(F)(F)C(F)(F)C(F)(F)F [Perfluoro-3,6,9-trioxatridecanoic acid]
Description: as §1

[3] = compound: O=C(O)C=C(C(F)(F)F)C(F)(F)F [3,3-Bis(trifluoromethyl)-2-propenoic acid]
Description: as §1

Perfluorononanoic acid = compound: O=C(O)C(F)(F)C(F)(F)C(F)(F)C(F)(F)C(F)(F)C(F)(F)C(F)(F)C(F)(F)F [Perfluorononanoic acid]
Description: as §1

[4] = compound: CCNS(=O)(=O)C(F)(F)C(F)(F)C(F)(F)C(F)(F)C(F)(F)C(F)(F)C(F)(F)C(F)(F)F [N-Ethylperfluorooctanesulfonamide]
Description: as §1

Perfluoroundecanoic acid = compound: O=C(O)C(F)(F)C(F)(F)C(F)(F)C(F)(F)C(F)(F)C(F)(F)C(F)(F)C(F)(F)C(F)(F)C(F)(F)F [Perfluoroundecanoic acid]
Description: as §1

| Test System | LOEC (log10 uM) [1] | LOEC (log10 uM) [2] | LOEC (log10 uM) [3] | LOEC (log10 uM) (Perfluorononanoic acid) | LOEC (log10 uM) [4] | LOEC (log10 uM) (Perfluoroundecanoic acid) |
| --- | --- | --- | --- | --- | --- | --- |
| 3C Eselectin down | 1.78 | 1.78 | 1.3 |  |  |  |
| 3C ICAM1 down | 1.78 | 1.78 |  |  |  |  |
| 3C IL8 down |  | 1.3 |  |  |  |  |
| 3C MCP1 down | 1.78 | 1.78 |  | 1.78 |  |  |
| 3C MIG down | 1.78 | 1.78 |  |  |  |  |
| 3C SRB down | 1.3 | 1.3 |  | 1.78 | 1.78 |  |
| 3C Thrombomodulin up | 1.3 |  |  |  |  |  |
| 3C TissueFactor down | 1.78 | 1.3 |  | 1.78 |  |  |
| 3C uPAR down | 1.78 | 1.54 ± 0.34 |  | 1.78 |  |  |
| 4H SRB down | 1.3 | 1.78 |  | 1.78 | 1.78 |  |
| 4H VEGFRII down |  |  |  |  | 1.78 |  |
| 4H uPAR down | 1.78 | 1.78 |  |  |  |  |
| BE3C EGFR down | 1.78 |  |  |  | 1.54 ± 0.34 | 0.845 |
| BE3C ICAM1 down | 1.78 | 0.845 |  | 1.78 |  | 0.845 |
| BE3C IL1a down | 1.78 | 0.845 |  | 1.78 | 1.78 | 0.845 |
| BE3C ITAC down | 1.3 | 0.845 |  | 1.78 | 1.3 | 0.301 |
| BE3C Keratin818 down | 1.78 | 0.845 |  | 1.78 | 0.845 | 0.845 |
| BE3C MIG down | 1.78 | 0.845 |  | 1.78 | 1.78 | 0.845 |
| BE3C MMP9 down | 0.845 | 0.845 |  | 1.78 | 0.845 | -0.199 ± 0.71 |
| BE3C PAI1 down | 0.845 | 0.573 ± 0.39 |  | 1.54 ± 0.34 | 0.845 | -0.199 ± 0.71 |
| BE3C SRB down | 1.78 | 0.845 |  | 1.78 | 1.78 | 0.845 |
| BE3C uPA down | 1.78 | 0.845 |  | 1.31 ± 0.66 |  | 0.845 |

| Test System | LOEC (log10 uM) [1] | LOEC (log10 uM) [2] | LOEC (log10 uM) [3] | LOEC (log10 uM) (Perfluorononanoic acid) | LOEC (log10 uM) [4] | LOEC (log10 uM) (Perfluoroundecanoic acid) |
| --- | --- | --- | --- | --- | --- | --- |
| BE3C uPAR down | 1.78 | 0.845 |  | 1.78 | 1.3 | 0.845 |
| BF4T CD90 down | 1.78 | 1.3 |  |  |  |  |
| BF4T ICAM1 down | 1.54 ± 0.34 | 1.07 ± 0.32 |  | 1.78 | 1.78 | 0.845 |
| BF4T IL1a down | 1.78 | 1.3 |  | 1.78 | 1.78 | 0.845 |
| BF4T IL8 down | 1.78 |  |  | 1.78 |  |  |
| BF4T Keratin818 down | 1.54 ± 0.34 | 1.3 |  | 1.78 | 1.54 ± 0.34 | 0.845 |
| BF4T MMP1 down |  | 1.3 |  | 1.78 | 1.78 | 0.845 |
| BF4T MMP3 down | 1.78 | 1.07 ± 0.32 |  | 1.78 |  | 0.845 |
| BF4T MMP9 down | 1.3 | 1.07 ± 0.32 |  | 1.78 | 1.54 ± 0.34 | 0.845 |
| BF4T PAI1 down | 1.78 | 1.3 |  | 1.78 |  | 0.845 |
| BF4T SRB down | 1.78 | 1.3 |  | 1.78 | 1.78 | 0.845 |
| BF4T VCAM1 down | 1.3 | 0.845 |  | 1.07 ± 0.32 | 0.845 | 0.845 |
| BF4T uPA down | 1.78 | 1.3 |  | 1.78 |  | 0.845 |
| BT Bcell Proliferation down |  |  | 1.78 |  |  |  |
| BT Bcell Proliferation up |  |  |  | 1.78 |  |  |
| CASM3C HLADR down |  |  | 0.573 ± 0.39 |  |  |  |
| CASM3C LDLR down | 1.78 | 1.78 |  |  |  |  |
| CASM3C SRB down | 1.78 | 1.78 |  |  |  |  |
| CASM3C uPAR down | 1.78 |  |  |  |  |  |
| IMphg IL1a down |  | 1.54 ± 0.34 |  |  |  |  |
| IMphg SRB down | 1.78 | 1.78 |  |  |  |  |
| IMphg SRB.Mphg down | 1.78 | 1.78 |  |  |  |  |

| Test System | LOEC (log10 uM) [1] | LOEC (log10 uM) [2] | LOEC (log10 uM) [3] | LOEC (log10 uM) (Perfluorononanoic acid) | LOEC (log10 uM) [4] | LOEC (log10 uM) (Perfluoroundecanoic acid) |
| --- | --- | --- | --- | --- | --- | --- |
| KF3CT ICAM1 down | 1.78 | 1.3 |  |  |  | 0.845 |
| KF3CT IL8 down | 1.78 |  |  |  |  | 0.845 |
| KF3CT IP10 down | 1.3 | 0.845 |  | 1.78 | 1.54 ± 0.34 | 0.845 |
| KF3CT MCP1 down | 1.78 | 0.845 |  | 0.801 ± 0.71 |  | 0.845 |
| KF3CT MIG down | 1.78 | 1.3 |  |  |  | 0.845 |
| KF3CT MMP9 down | 1.3 | 0.845 |  | 1.31 ± 0.66 | 1.3 | 0.301 |
| KF3CT PAI1 down | 1.54 ± 0.34 | 0.845 |  | 1.78 | 1.54 ± 0.34 | 0.301 |
| KF3CT SRB down | 1.78 | 1.3 |  |  |  | 0.845 |
| KF3CT TIMP2 down | 1.78 | 0.845 |  |  | 1.78 | 0.845 |
| KF3CT uPA down | 1.3 | 1.3 |  |  | 1.78 | 0.845 |
| LPS CD69 down | 1.3 | 1.78 |  | 1.78 |  |  |
| LPS Eselectin down | 1.78 | 1.78 |  |  |  |  |
| LPS IL8 down | 1.78 | 1.07 ± 0.32 |  |  | 1.78 |  |
| LPS MCP1 down | 1.78 | 1.54 ± 0.34 |  | 1.78 | 1.78 |  |
| LPS SRB down | 1.78 | 1.78 |  | 1.78 | 1.78 |  |
| LPS TissueFactor down | 1.78 | 1.78 |  |  |  |  |
| LPS TissueFactor up |  |  |  |  | 1.78 |  |
| MyoF CollagenI down | 1.3 | 0.845 |  | 1.54 ± 0.34 | 1.78 | 0.301 |
| MyoF CollagenIII down | 1.3 | 0.845 |  | 1.78 | 1.78 | 0.301 |
| MyoF CollagenIV up |  |  |  | 1.3 |  |  |
| MyoF Decorin down |  | 1.3 |  |  | 1.78 | 0.845 |
| MyoF IL8 down | 1.78 | 1.78 |  |  | 1.78 | 0.845 |

| Test System | LOEC (log10 uM) [1] | LOEC (log10 uM) [2] | LOEC (log10 uM) [3] | LOEC (log10 uM) (Perfluorononanoic acid) | LOEC (log10 uM) [4] | LOEC (log10 uM) (Perfluoroundecanoic acid) |
| --- | --- | --- | --- | --- | --- | --- |
| MyoF PAI1 down | 1.78 | 1.07 ± 0.32 |  |  | 1.78 | 0.845 |
| MyoF SRB down | 1.3 | 1.07 ± 0.32 |  |  | 1.78 | 0.845 |
| MyoF TIMP1 down | 1.78 | 1.3 |  |  | 1.3 | 0.573 ± 0.39 |
| MyoF bFGF down | 1.78 | 1.07 ± 0.32 |  |  | 1.78 | 0.845 |
| SAg CD38 down | 1.54 ± 0.34 | 1.78 |  | 1.78 | 1.78 |  |
| SAg MCP1 down | 1.78 | 1.78 |  | 1.78 | 1.78 |  |
| SAg MIG down | 1.78 | 1.78 |  |  |  |  |
| SAg PBMCCytotoxicity down | 1.78 | 1.78 |  |  |  |  |
| SAg SRB down | 1.78 | 1.78 |  | 1.78 | 1.78 |  |
| hDFCGF CollagenI down |  | 1.54 ± 0.34 |  |  | 1.78 | 0.845 |
| hDFCGF CollagenIII down | 1.3 | 0.845 |  |  | 0.845 | 0.845 |
| hDFCGF EGFR down |  |  |  |  |  | 0.301 |
| hDFCGF ICAM1 down | 1.3 | 1.07 ± 0.32 |  | 1.78 | 1.54 ± 0.34 | 0.845 |
| hDFCGF IL8 down | 1.3 | 1.3 |  |  | 1.78 | 0.845 |
| hDFCGF PAI1 down | 1.3 | 0.845 |  |  | 1.54 ± 0.34 | 0.845 |
| hDFCGF SRB down | 1.78 | 0.845 |  |  | 1.54 ± 0.34 | 0.845 |
| hDFCGF TIMP1 down |  | 1.07 ± 0.32 |  |  | 1.78 | 0.845 |
| hDFCGF TIMP1 up | 1.78 |  |  |  |  |  |
| hDFCGF TIMP2 down |  | 0.845 |  |  | 1.54 ± 0.34 | 0.845 |
